# System: up to 32 different microorganisms
# Assay: in vitro antibacterial activity (MIC), agar dilution on Brain Heart Infusion (BHI) agar with Steers replicator
# Format: cell-based
# Conditions: unit assumed
# How it was run: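 MIC read visually: lowest drug level with no growth, slight haze or sparsely isolated colonies on the inoculum spot relative to drug-free control. Serial aqueous compound dilutions in BHI agar, 1:100 inoculum (1:10 slow strains), 20 to 24 hours at 35°-37° C.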
structure (smiles),measurement,setting,value
"CCC1OC(=O)C(C)C(=O)C(C)C(OC2OC(C)CC(N(C)C)C2O)C(C)(OCC=Cc2ccc(-n3cccc3)cc2)CC(C)C(=O)C(C)C2NC(=O)OC12C (centres unmarked) [Example 282, Compound of Formula (IX): L is CO, T is NH2, R is —CH2CH═CH-(4-pyrrolylphenyl)]",MIC,organism code AA,0.2 µg/mL
same,MIC,organism code BB,0.1 µg/mL
same,MIC,organism code CC,100 µg/mL
same,MIC,organism code DD,0.2 µg/mL
same,MIC,organism code EE,0.2 µg/mL
same,MIC,organism code FF,0.1 µg/mL
same,MIC,organism code GG,100 µg/mL
same,MIC,organism code HH,0.2 µg/mL
same,MIC,organism code II,0.05 µg/mL
same,MIC,organism code JJ,0.01 µg/mL
same,MIC,organism code KK,≤ 0.005 µg/mL
same,MIC,organism code LL,≤ 0.005 µg/mL
same,MIC,organism code MM,25 µg/mL
same,MIC,organism code NN,0.1 µg/mL
same,MIC,organism code OO,0.05 µg/mL
same,MIC,organism code PP,0.2 µg/mL
same,MIC,organism code QQ,> 100 µg/mL
same,MIC,organism code RR,0.78 µg/mL
same,MIC,organism code SS,> 100 µg/mL
same,MIC,organism code TT,> 100 µg/mL
same,MIC,organism code UU,1.56 µg/mL
same,MIC,organism code VV,0.2 µg/mL
same,MIC,organism code WW,8 µg/mL
same,MIC,organism code XX,0.03 µg/mL
same,MIC,organism code YY,0.03 µg/mL
same,MIC,organism code ZZ,36 µg/mL
same,MIC,organism code ZZA,0.25 µg/mL
"CCC1OC(=O)C(C)C(=O)C(C)C(OC2OC(C)CC(N(C)C)C2O)C(C)(OCC=Cc2cccc3cccnc23)CC(C)C(=O)C(C)C2NC(=O)OC12C (centres unmarked) [Example 189, R is —CH2CH-(8-quinolyl)]",MIC,Candida albicans CCH 442 (code TT),> 100 µg/mL
same,MIC,Enterococcus faecism ATCC 8043 (code II),0.05 µg/mL
same,MIC,Escherichia coli DC-2 (code SS),50 µg/mL
same,MIC,Escherichia coli JUHL (code QQ),100 µg/mL
same,MIC,Escherichia coli SS (code RR),0.39 µg/mL
same,MIC,Haemophilis influenzae DILL AMP R (code WW),8 µg/mL
same,MIC,Micrococcus luteus ATCC 4698 (code PP),0.1 µg/mL
same,MIC,Micrococcus luteus ATCC 9341 (code OO),0.02 µg/mL
same,MIC,Mycobacterium smegmatis ATCC 114 (code UU),0.78 µg/mL
same,MIC,Nocardia Asteroides ATCC9970 (code VV),0.05 µg/mL
same,MIC,Staphylococcus aureus 1775 (code GG),> 100 µg/mL
same,MIC,Staphylococcus aureus A5177 (code BB),0.1 µg/mL
same,MIC,Staphylococcus aureus A-5278 (code CC),> 100 µg/mL
same,MIC,Staphylococcus aureus ATCC 6538P (code AA),0.2 µg/mL
same,MIC,Staphylococcus aureus CMX 553 (code FF),0.1 µg/mL
same,MIC,Staphylococcus aureus CMX 642A (code DD),0.2 µg/mL
same,MIC,Staphylococcus aureus NCTC10649M (code EE),0.1 µg/mL
same,MIC,Staphylococcus epidermidis 3519 (code HH),0.2 µg/mL
same,MIC,Streptococcus Pneumonia 5649 (code ZZA),0.5 µg/mL
same,MIC,Streptococcus Pneumonia 5979 (code ZZ),> 32 µg/mL
same,MIC,Streptococcus Pneumonia ATCC6303 (code XX),0.125 µg/mL
same,MIC,Streptococcus Pneumonia GYR 1171 (code YY),0.06 µg/mL
same,MIC,Streptococcus agalactiae CMX 508 (code KK),≤ 0.005 µg/mL
same,MIC,Streptococcus bovis A-5169 (code JJ),≤ 0.005 µg/mL
same,MIC,Streptococcus pyogenes 930 (code MM),50 µg/mL
same,MIC,Streptococcus pyogenes EES61 (code LL),≤ 0.005 µg/mL
same,MIC,Streptococcus pyogenes PIU 2548 (code NN),0.2 µg/mL
"CC[C@H]1OC(=O)[C@H](C)C(=O)[C@H](C)[C@@H](O[C@@H]2O[C@H](C)C[C@H](N(C)C)[C@H]2O)[C@@](C)(OCC=NNC(=O)c2ccccc2)C[C@@H](C)C(=O)[C@H](C)[C@H]2NC(=O)O[C@@]21C [Example 241, Compound of Formula (IX): L is CO, T is NH, R is —CH2CH═NNHC(O)phenyl]",MIC,organism code AA,3.1 µg/mL
same,MIC,organism code CC,> 100 µg/mL
same,MIC,organism code DD,6.2 µg/mL
same,MIC,organism code EE,6.2 µg/mL
same,MIC,organism code FF,6.2 µg/mL
same,MIC,organism code GG,> 100 µg/mL
same,MIC,organism code HH,6.2 µg/mL
same,MIC,organism code II,1.56 µg/mL
same,MIC,organism code JJ,0.39 µg/mL
same,MIC,organism code KK,1.56 µg/mL
same,MIC,organism code LL,0.78 µg/mL
same,MIC,organism code MM,> 100 µg/mL
same,MIC,organism code NN,6.2 µg/mL
same,MIC,organism code OO,0.78 µg/mL
same,MIC,organism code PP,3.1 µg/mL
same,MIC,organism code QQ,> 100 µg/mL
same,MIC,organism code RR,1.56 µg/mL
same,MIC,organism code SS,> 100 µg/mL
same,MIC,organism code TT,> 100 µg/mL
same,MIC,organism code UU,100 µg/mL
same,MIC,organism code VV,6.2 µg/mL
same,MIC,organism code WW,16 µg/mL
same,MIC,organism code XX,0.5 µg/mL
same,MIC,organism code YY,0.25 µg/mL
same,MIC,organism code ZZ,> 128 µg/mL
same,MIC,organism code ZZA,4 µg/mL
"CC[C@H]1OC(=O)[C@H](C)C(=O)[C@H](C)[C@@H](O[C@@H]2O[C@H](C)C[C@H](N(C)C)[C@H]2O)[C@@](C)(OCC=NOCc2ccccc2)C[C@@H](C)C(=O)[C@H](C)[C@H]2NC(=O)O[C@@]21C [Example 229, Compound of Formula (IX): L is CO, T is NH, R is —CH2CH═NOCH2(phenyl)]",MIC,organism code AA,0.2 µg/mL
same,MIC,organism code BB,0.2 µg/mL
same,MIC,organism code CC,> 100 µg/mL
same,MIC,organism code DD,0.2 µg/mL
same,MIC,organism code EE,0.2 µg/mL
same,MIC,organism code FF,0.2 µg/mL
same,MIC,organism code GG,> 100 µg/mL
same,MIC,organism code HH,0.2 µg/mL
same,MIC,organism code II,0.05 µg/mL
same,MIC,organism code JJ,≤ 0.005 µg/mL
same,MIC,organism code KK,0.02 µg/mL
same,MIC,organism code LL,0.01 µg/mL
same,MIC,organism code MM,50 µg/mL
same,MIC,organism code NN,0.2 µg/mL
same,MIC,organism code OO,0.02 µg/mL
same,MIC,organism code PP,0.05 µg/mL
same,MIC,organism code QQ,> 100 µg/mL
same,MIC,organism code RR,0.39 µg/mL
same,MIC,organism code SS,> 100 µg/mL
same,MIC,organism code TT,> 100 µg/mL
same,MIC,organism code UU,1.56 µg/mL
same,MIC,organism code VV,0.2 µg/mL
same,MIC,organism code WW,2 µg/mL
same,MIC,organism code XX,≤ 0.004 µg/mL
same,MIC,organism code YY,≤ 0.004 µg/mL
same,MIC,organism code ZZ,> 128 µg/mL
same,MIC,organism code ZZA,0.125 µg/mL

# Reference: patent USRE39591E1, “6-O-substituted ketolides having antibacterial activity” (Abbott Laboratories, priority 1996, dated 2007)
